Experiments:
[1] = Free radical scavenging activity by DPPH method; assay type: biochemical; conditions: 30 minutes, room temperature
Description: Anti-oxidative effect of Osteomeles […] extract, fractions thereof obtained from each of hexane layer, ethyl acetate layer, butanol layer and water layer of the extract was investigated in vitro. Free radical scavenging activity of each sample was measured by DPPH method (Brand-Williams W, et al., Technology, 1995, 28, 25-30). Samples were dissolved in ethanol, and diluted at different concentrations. Each of the diluted sample was distributed in 96 well plate (20 μl/well). […] DPPH solution dissolved in ethanol was added to each well by 180 μl to make the final volume of the reaction solution 200 μl, followed by reaction at room temperature for 30 minutes. Then, OD517 was measured with ELISA reader (Bio-TEK, Synergy HT, USA) to investigate absorbance changes by reduction of DPPH. Free radical scavenging activity was presented as RC50, which is the amount of sample (μg/ml) needed for the reduction of 50% DPPH. For the positive control, butylated hydroxytoluene (BHT) was used. Anti-oxidative effect of Osteomeles […] extract was measured in vitro by the same manner as described above and the results are shown in Table 7.

[2] = tested on: type II diabetes animal model, Spontaneous Diabetic Torii (SDT) rat; assay: Type II diabetes animal model, SDT rat; assay type: in vivo
Excerpt: To investigate the preventive and therapeutic effect of Osteomeles schwerinae on diabetic complications in type II diabetes animal model, the extract was orally administered to Spontaneous Diabetic Torii (SDT) rats for 16 weeks, followed by analysis of the effect. Spontaneous Diabetic Torii (SDT) rats, the type II diabetes animal model, were used as test animals. Particularly, male SDT rats at 10 weeks (CLEA Japan Inc., Tokyo, Japan) were adapted for 1 week, and then raised for 15 weeks until high blood glucose was induced up to the level of 300 mg/dl. Feeds and water were provided freely. 15 weeks later, the rats were divided into 5 groups, 8 rats per each group. As test drugs, Osteomeles schwerinae extract (Os-100, OS-250) and metformin (MET, control drug) were orally administered once a day. The experimental groups were as follows: the normal group (NOR), the diabetes group (DM), the diabetes group treated with 350 mg/kg of metformin (MET), the diabetes group treated with 100 mg/kg of Osteomeles schwerinae extract (OS-100), and the diabetes group treated with 250 mg/kg of Osteomeles schwerinae extract (OS-250). Each group was orally administered with the test drug once a day for 16 weeks. Urine was taken for 24 hours before autopsy. The organs extracted from the autopsy were stored at −80° C.
The test animals were anesthetized by peritoneally injecting pentobarbital sodium (25 mg/kg body weight). Heart was extracted by opening abdominal cavity and thoracic cavity. 50 mg/ml of fluorescein-dextran (2×10^6 molecular weight) dissolved in 1 ml/ml sterilized PBS was injected in the left ventricle. 10 minutes later, eye balls were extracted. Retina was separated from eyecup of the left eye ball. The isolated retina was placed on the slide, followed by mounting with aqueous mounting medium. The slide was completely dried and observed under fluorescent microscope. Fluorescent material was injected in retinal blood vessel, followed by observation. […] To investigate blood-retinal barrier damage, outflow of the fluorescent material was observed. […] However, the fluorescent material was leaked out of blood vessels, indicating blood-retinal barrier damage, in multiple animals of the diabetes group (arrow), and non-perfusion area (arrow) caused by the blood vessel being narrow was also observed in some of those animals in the diabetes group.
Lens was separated and lens opacity was examined to investigate the preventive effect of the extract on lens opacity. Eye balls were extracted during autopsy, which were placed in PBS (phosphate buffered saline, pH 7.4). Lens was carefully separated from the eyeball by posterior approach. Then, iris and zonule were eliminated. The lens was photographed under optical microscope equipped with CCD camera (BX51, Olympus, Japan). Lens opacity was measured with the photographed lens images by using Scion image analyzer (Scion Corporation, USA). The results of investigation of lens opacity with the lens isolated from the eye ball extracted during autopsy are shown in FIG. 39 and in FIG. 40. […] Incidence rate of cataract and lens opacity were quantitatively analyzed.
Lens opacity is caused by the degeneration of lens fiber composing lens. Thus, to investigate the effect of Osteomeles schwerinae extract on lens fiber degeneration, the effect of Osteomeles schwerinae extract on lens fiber degeneration in SDT type II diabetes rat was analyzed. To observe the degeneration of lens fiber induced by cataract, lens was fixed in 10% neutralized formalin (Microme, USA) for 24 hours, followed by the conventional tissue treatment. After paraffin embedding, the embedded block was cut into 2 μm thick sections, followed by hydration. The sections were stained with rhodamine-labeled wheat-germ agglutinin (WGA, Vector Laboratory, USA), and observed under fluorescent microscope (BX51, Olympus, Japan). To investigate the preventive effect on lens fiber degeneration, lens was stained and observed. […]

[3] = tested on: type II diabetes animal model, Spontaneous Diabetic Torii (SDT) rat; assay: Type II diabetes animal model, SDT rat; assay type: in vivo; conditions: oral once a day 16 weeks; extract 100 and 350 mg/kg as printed; metformin 350 mg/kg; vs diabetes group

Row | SMILES | RC50 (μg/ml), amount of sample needed for the reduction of 50% DPPH [1] [µg/mL] | blood-retinal barrier damage, outflow of the fluorescent material ([2]; 16 weeks) | pericyte loss, acellular capillary formation and closed vessels ([2]; 16 weeks) | GFAP positive reaction, Muller cell activation ([2]; 16 weeks, vs diabetes group) | aldose reductase (AR) activity in lens ([2]; 16 weeks, extract 250 mg/ml as printed, metformin, vs diabetes group) | lens fiber degeneration, swelling and vesicle formation ([2]; 16 weeks, extract high concentration, metformin 350 mg/kg) | retinal angiogenesis, fluorescein-dextran ([2]; 16 weeks, extract low and high concentration, metformin 350 mg/kg) | podocyte loss, synaptopodin staining ([2]; 16 weeks, extract low and high concentration, metformin 350 mg/kg, vs diabetes group) | glomerular hypertrophy and mesangial matrix enlargement, PAS staining ([2]; oral once a day 16 weeks, extract 100 and 250 mg/kg, metformin 350 mg/kg) | level of AGEs in urine [3]
1 | Cc1cc(C(C)(C)C)c(O)c(C(C)(C)C)c1 [BHT, butylated hydroxytoluene] | 26.75 ± 10.75 | – | – | – | – | – | – | – | – | –
2 | CN(C)C(=N)N=C(N)N [metformin] | – | observed just barely | significantly inhibited | rather decreased | AR activity was significantly reduced | improving effect was hardly observed | Angiogenesis was also observed | no significant difference | morphological changes were reduced, which was not significant | not significantly changed

— patent US8784911B2, “Compositions for treatment and prevention of diabetic complications using Osteomeles schwerinae” (Korea Institute of Oriental Medicine, priority 2009, dated 2014)
